Assay results taken from US20220089612A1, “HETEROCYCLIC COMPOUNDS AS PRMT5 INHIBITORS” (ANGEX PHARMACEUTICAL, INC., priority 2017, published 2022).

target: PRMT5:MEP50 (Homo sapiens, UniProt O14744); test: PRMT5:MEP50 Flashplate Assay; assay type: biochemical; conditions: PRMT5:MEP50 inhibitory activity; 3H-SAM, 2 h at room temperature, top concentration 10 μM
Method: PRMT5:MEP50 Flashplate Assay:
Ten-point curves of inhibitor compounds were made using serial threefold dilutions in DMSO (the final top concentration of compound was 10 μM, 1% DMSO). Reaction mixture consisting of 50 mM Tris-HCl (pH 8.5), 0.002% Tween 20, 0.005% BSA (Bovine Serum Albumin), 1 mM TCEP, and 1% DMSO. Substrates are freshly prepared in reaction buffer. PRMT5:MEP50 was then added into substrate solution and mixed gently. Inhibitor compound was then added and incubated for 30 min at room temperature. ^3H-SAM was added to initiate the reaction. Reactions were incubated for 2 h at room temperature and quenched with 0.5 mM SAM (S-adenosyl-L-Methionine) in assay buffer. An aliquot of the reaction mix was transferred to a streptavidin-coated 384-well FlashPlate (PerkinElmer). After an incubation time of 1 h, the plate was washed and then read on a TopCount (PerkinElmer) to measure the amount of tritium incorporated into the peptide substrate. IC50 was calculated using conventional curve-fitting method.

Sequence of PRMT5:MEP50 (O14744 whole entry, species assumed): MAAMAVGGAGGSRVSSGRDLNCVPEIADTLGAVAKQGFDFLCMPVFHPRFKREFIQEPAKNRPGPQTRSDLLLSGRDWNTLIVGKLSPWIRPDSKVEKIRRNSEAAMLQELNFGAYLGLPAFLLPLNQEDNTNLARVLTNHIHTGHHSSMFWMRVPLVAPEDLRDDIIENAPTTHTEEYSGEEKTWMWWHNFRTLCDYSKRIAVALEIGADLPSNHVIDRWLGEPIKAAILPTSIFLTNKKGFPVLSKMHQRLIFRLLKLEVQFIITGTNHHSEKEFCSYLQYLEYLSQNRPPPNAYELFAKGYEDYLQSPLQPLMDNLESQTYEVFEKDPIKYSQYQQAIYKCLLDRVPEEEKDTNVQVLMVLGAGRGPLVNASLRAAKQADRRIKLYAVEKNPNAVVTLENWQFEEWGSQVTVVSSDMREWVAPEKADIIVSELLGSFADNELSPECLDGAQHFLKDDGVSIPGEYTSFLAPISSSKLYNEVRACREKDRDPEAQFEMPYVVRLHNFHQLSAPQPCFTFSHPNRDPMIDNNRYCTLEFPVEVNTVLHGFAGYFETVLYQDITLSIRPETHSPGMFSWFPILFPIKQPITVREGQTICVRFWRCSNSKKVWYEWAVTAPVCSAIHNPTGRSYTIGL
Sequence of PRMT5:MEP50 (Q9BQA1 whole entry partner, species assumed): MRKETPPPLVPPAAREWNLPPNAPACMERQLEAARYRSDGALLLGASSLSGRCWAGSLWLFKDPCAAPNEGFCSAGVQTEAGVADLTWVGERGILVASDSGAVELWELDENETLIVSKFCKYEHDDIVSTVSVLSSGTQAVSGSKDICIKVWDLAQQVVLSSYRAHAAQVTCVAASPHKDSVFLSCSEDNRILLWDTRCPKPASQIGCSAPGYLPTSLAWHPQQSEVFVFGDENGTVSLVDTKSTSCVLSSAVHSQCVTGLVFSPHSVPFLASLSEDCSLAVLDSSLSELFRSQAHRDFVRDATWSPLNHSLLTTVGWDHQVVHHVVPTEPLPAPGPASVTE

Structure (SMILES)	IC50
Nc1ncnc2c1ccn2[C@@H]1C[C@H](CCc2ccc3cc4nc[nH]c4nc3c2)[C@@H](O)[C@H]1O [Compound 1-18, (1S,2R,3S,5R)-3-(2-(3H-imidazo[4,5-b]quinolin-6-yl)ethyl)-5-(4-amino-7H-pyrrolo[2,3-d]pyrimidin-7-yl)cyclopentane-1,2-diol]	< 1 nM
Nc1ncnc2c1ccn2[C@@H]1O[C@H](CCc2ccc3cc4cn[nH]c4nc3c2)[C@@H](O)[C@H]1O [Compound 3-12, (2R,3S,4R,5R)-2-(2-(1H-pyrazolo[3,4-b]quinolin-7-yl)ethyl)-5-(4-amino-7H-pyrrolo[2,3-d]pyrimidin-7-yl)tetrahydrofuran-3,4-diol]	1 to 100 nM
Nc1ncnc2c1ccn2[C@@H]1C[C@H](CCc2ccc3cc4c(=O)[nH][nH]c4nc3c2)[C@@H](O)[C@H]1O [Compound 1-32, 7-(2-((1S,2R,3S,4R)-4-(4-amino-7H-pyrrolo[2,3-d]pyrimidin-7-yl)-2,3-dihydroxycyclopentyl)ethyl)-1,2-dihydro-3H-pyrazolo[3,4-b]quinolin-3-one]	1 to 100 nM

Results, then the molecule that gave them:

IC50	Structure (SMILES)
< 1 nM	CC(C)(C)[C@@H]1Cc2cc3ccc(CC[C@H]4C[C@@H](n5ccc6c(N)ncnc65)[C@H](O)[C@@H]4O)cc3nc2N1 [Compound 1-26, (1R,2S,3R,5S)-3-(4-amino-7H-pyrrolo[2,3-d]pyrimidin-7-yl)-5-(2-((S)-2-(tert-butyl)-2,3-dihydro-1H-pyrrolo[2,3-b]quinolin-7-yl)ethyl)cyclopentane-1,2-diol]
1 to 100 nM	CC(C)[C@@H]1CCc2cc3ccc(CC[C@H]4C[C@@H](n5ccc6c(N)ncnc65)[C@H](O)[C@@H]4O)cc3nc2N1 [Compound 1-39, (1R,2S,3R,5S)-3-(4-amino-7H-pyrrolo[2,3-d]pyrimidin-7-yl)-5-(2-((S)-2-isopropyl-1,2,3,4-tetrahydrobenzo[b][1,8]naphthyridin-8-yl)ethyl)cyclopentane-1,2-diol]
1 to 100 nM	Nc1ncnc2c1ccn2[C@@H]1C[C@H](CCc2ccc3cc4c(nc3c2)N[C@H](CC2CC2)C4)[C@@H](O)[C@H]1O [Compound 1-29, (1R,2S,3R,5S)-3-(4-amino-7H-pyrrolo[2,3-d]pyrimidin-7-yl)-5-(2-((R)-2-(cyclopropylmethyl)-2,3-dihydro-1H-pyrrolo[2,3-b]quinolin-7-yl)ethyl)cyclopentane-1,2-diol]
< 1 nM	C[C@@H]1Cc2cc3ccc(CC[C@H]4C[C@@H](n5ccc6c(N)ncnc65)[C@H](O)[C@@H]4O)cc3nc2NO1 [Compound 1-16, (1R,2S,3R,5S)-3-(4-amino-7H-pyrrolo[2,3-d]pyrimidin-7-yl)-5-(2-((R)-3-methyl-3,4-dihydro-1H-[1,2]oxazino[3,4-b]quinolin-8-yl)ethyl)cyclopentane-1,2-diol]
